Results taken from PubChem BioAssay AID1963849 (Molecular Pharmacology Branch, DTP, NCI, 2024).

Test system: 299254-011-R-J1-PDC complex spheroid viability
Assay: Anticancer human tumor 299254-011-R-J1-PDC patient-derived melanoma cell line growth inhibition [POLQ]
Conditions: for IC50: curve of first compound; for viability, T/C: stronger effect = lower value
Description: Multicellular complex tumor spheroid response to Polymerase (POL) inhibitors (novobiocin, ART-558, RP6685) in combination with a variety of drugs and investigational agents in selected tumor cell lines
The POL inhibitors (novobiocin, ART-558, and RP6685) were evaluated both individually and in combination with standard of care and investigational anticancer small molecules within a complex spheroid model of solid tumors. . Complex spheroids include a stromal component modeled by human endothelial cells (HUVEC) and fibroblasts modeled by human mesenchymal stem cells (MSCs). The concentration ranges selected for each drug and investigational agent were based upon clinically achievable concentrations if the clinical Cmax of the agent was known.
Compounds. The drugs and investigational agents: novobiocin (NSC847541), ART-558 (NSC835418), RP-6685 (NSC848927), peposertib (NSC802822), ceralasertib (NSC780249), elimusertib (NSC800525), camonsertib (NSC841442), AZD-1390 (NSC803789), olaparib (NSC753686), talazoparib (NSC767125), rucaparib (NSC756644), sotorasib (NSC818433), MRTX-1133 (NSC836407), SN-38 (NSC673596), topotecan (NSC609699), epotoside (NSC141540), doxorubicin (NSC123127), gemcitabine (NSC613327), 5-fluorouracil (NSC19893), paclitaxel (NSC125973), vemurafenib (NSC761431), MSA-2 (NSC828583), SN-011 (NSC837082), adavosertib (NSC754352), prexasertib (NSC758257), carboplatin (NSC241240) and oxaliplatin (NSC266046), were obtained from the National Cancer Institute (NCI) Developmental Therapeutics Program Chemical Repository (21). The FDA-approved anticancer drug set is available from the Developmental Therapeutics Program at https://dtp.cancer.gov/organization/dscb/obtaining/. […] The stock solutions were prepared in dimethyl sulfoxide (DMSO, Sigma-Aldrich, St. Louis, MO, cat. D2650), except for the platinum compounds which were prepared in saline (Quality Biological, Gaithersburg, MD, cat. 114-055-101), at 800-fold the tested concentration and stored at -70 degrees C prior to their use. All drugs and investigational agents were tested over a range starting from a high concentration at or near the clinical Cmax and decreasing in half-log increments. If the clinical Cmax for an agent had not been determined, the highest concentration tested was 10 microM, except for SN-38, which was tested at a high concentration of 1 microM.
Cell Culture. All cells were maintained in an incubator at 37 degrees C and 5% CO2 with 95% humidity. The PDC lines were cultured according to standard operating procedures established by the NCI PDMR (https://pdmr.cancer.gov). Table 3 of the manuscript, lists the cell lines along with the number of the three cell types plated to form the mct-spheroids and media for tumor cell growth. After thawing, all PDC lines, except 997537-175-T-J1-PDC and 415267-285-R-J2-PDC, were cultured in Matrigel-coated flasks prepared with a working solution of 1X Ham's F-12 nutrient mix, without supplementation (Thermo Fisher Scientific, cat. 11765054), 100 U/mL penicillin-streptomycin (Thermo Fisher Scientific, cat. 15140122), and 2.5% Matrigel (Corning Inc., Corning, NY, cat. 354248) for the first three passages. The two PDC lines 997537-175-T-J1-PDC and 415267-285-R-J2-PDC were cultured on uncoated flasks. The 857933-349-R-J2-PDC line was cultured in 6C/Colon 1B media containing advanced DMEM/F-12 (Thermo Fisher Scientific, cat. 12634028), 10 mM HEPES (Thermo Fisher Scientific, cat. 15630080), 1X GlutaMAX supplement (Thermo Fisher Scientific, cat. 35050061), 0.1 mg/mL primocin (InvivoGen, San Diego, CA, cat. ant-pm-2), 10% defined fetal bovine serum, heat inactivated (HyClone Laboratories Inc., Logan, UT, cat. SH30070.03HI), 50% L-WRN conditioned media (ATCC, cat. CRL-3276), 1.25 mM N-Acetyl-L-cysteine (Sigma-Aldrich, cat. A9165), 10 mM nicotinamide (Sigma-Aldrich, cat. N0636), 1X B-27 supplement (Thermo Fisher Scientific, cat. 17504044), 1X N-2 supplement (Thermo Fisher Scientific, cat. […]

[1] = second compound 0.0316 µM, first compound 0.0316 µM
[2] = second compound 0.0316 µM, first compound 0.1 µM
[3] = second compound 0.0316 µM, first compound 0.316 µM
[4] = second compound 0.0316 µM, first compound 1 µM
[5] = second compound 0.0316 µM, first compound 3.16 µM
[6] = second compound 0.0316 µM, first compound 10 µM
[7] = second compound 0.1 µM, first compound 0.0316 µM
[8] = second compound 0.1 µM, first compound 0.1 µM
[9] = second compound 0.1 µM, first compound 0.316 µM
[10] = second compound 0.1 µM, first compound 1 µM
[11] = second compound 0.1 µM, first compound 3.16 µM
[12] = second compound 0.1 µM, first compound 10 µM
[13] = second compound 0.316 µM, first compound 0.0316 µM
[14] = second compound 0.316 µM, first compound 0.1 µM
[15] = second compound 0.316 µM, first compound 0.316 µM
[16] = second compound 0.316 µM, first compound 1 µM
[17] = second compound 0.316 µM, first compound 3.16 µM
[18] = second compound 0.316 µM, first compound 10 µM
[19] = second compound 1 µM, first compound 0.0316 µM
[20] = second compound 1 µM, first compound 0.1 µM
[21] = second compound 1 µM, first compound 0.316 µM
[22] = second compound 1 µM, first compound 1 µM
[23] = second compound 1 µM, first compound 3.16 µM
[24] = second compound 1 µM, first compound 10 µM
[25] = second compound 3.16 µM, first compound 0.0316 µM
[26] = second compound 3.16 µM, first compound 0.1 µM
[27] = second compound 3.16 µM, first compound 0.316 µM
[28] = second compound 3.16 µM, first compound 1 µM
[29] = second compound 3.16 µM, first compound 3.16 µM
[30] = second compound 3.16 µM, first compound 10 µM
[31] = second compound 10 µM, first compound 0.0316 µM
[32] = second compound 10 µM, first compound 0.1 µM
[33] = second compound 10 µM, first compound 0.316 µM
[34] = second compound 10 µM, first compound 1 µM
[35] = second compound 10 µM, first compound 3.16 µM
[36] = second compound 10 µM, first compound 10 µM
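Note: spheroids exposed to drugs for one week before measurement.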
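Throughout, for viability, T/C: percent viability relative to DMSO vehicle control taken as 100%.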

Work on `CC1COCCN1c1cc(C2(O)CC3CCC(C2)O3)c2cnn(-c3ccn[nH]3)c2n1` (stereo unspecified) + Nc1ccc(C#CCN(C(=O)Cc2ncc(C(F)(F)F)cc2C(F)(F)F)c2ccc(F)cc2)nn1 yielded an IC50 (second compound 0.0316 µM) of 0.168 µM, an IC50 (second compound 0.1 µM) of 0.173 µM and an IC50 (second compound 0.316 µM) of 0.13 µM. It also gave an IC50 (second compound 1 µM) of 0.138 µM, an IC50 (second compound 3.16 µM) of 0.0982 µM and an IC50 (second compound 10 µM) of 0.0971 µM. It also gave a viability, T/C [1] of 90.4%, a viability, T/C [2] of 61.6% and a viability, T/C [3] of 34.3%. It also gave a viability, T/C [4] of 27.1%, a viability, T/C [5] of 15.7% and a viability, T/C [6] of 11.1%. For the same compound, the viability, T/C [7] was 87.4%, the viability, T/C [8] was 55.3% and the viability, T/C [9] was 42.5%. It also gave a viability, T/C [10] of 29.8%, a viability, T/C [11] of 15.6% and a viability, T/C [12] of 13.2%. It also gave a viability, T/C [13] of 80.6%, a viability, T/C [14] of 49.6% and a viability, T/C [15] of 39.5%. The viability, T/C [16] was 26.6%, the viability, T/C [17] was 18.5% and the viability, T/C [18] was 11.5%. For the same compound, the viability, T/C [19] was 91%, the viability, T/C [20] was 55.7% and the viability, T/C [21] was 35.2%. The viability, T/C [22] was 21.5%, the viability, T/C [23] was 16.5% and the viability, T/C [24] was 12.9%. For the same compound, the viability, T/C [25] was 79.1%, the viability, T/C [26] was 49.5% and the viability, T/C [27] was 31.8%. The viability, T/C [28] was 23.1%, the viability, T/C [29] was 18.9% and the viability, T/C [30] was 14%. The viability, T/C [31] was 73.8%, the viability, T/C [32] was 48% and the viability, T/C [33] was 35.8%. It also gave a viability, T/C [34] of 22.1%, a viability, T/C [35] of 18.4% and a viability, T/C [36] of 15.5%.

`CCc1cc2c(N3CCc4c(cc(Cn5ccnc5)cc4-c4cn(C)nc4C(F)(F)F)C3=O)cc(C)nc2c(OC)n1` + Nc1ccc(C#CCN(C(=O)Cc2ncc(C(F)(F)F)cc2C(F)(F)F)c2ccc(F)cc2)nn1 was tested, and the IC50 (second compound 0.0316 µM) was > 10 µM, the IC50 (second compound 0.1 µM) was > 10 µM and the IC50 (second compound 0.316 µM) was > 10 µM. For the same compound, the IC50 (second compound 1 µM) was > 10 µM, the IC50 (second compound 3.16 µM) was > 10 µM and the IC50 (second compound 10 µM) was > 10 µM. It also gave a viability, T/C [1] of 94.3%, a viability, T/C [2] of 99.2% and a viability, T/C [3] of 107%. For the same compound, the viability, T/C [4] was 98.5%, the viability, T/C [5] was 86.8% and the viability, T/C [6] was 58.7%. It also gave a viability, T/C [7] of 90.3%, a viability, T/C [8] of 103% and a viability, T/C [9] of 117%. The viability, T/C [10] was 101%, the viability, T/C [11] was 92.9% and the viability, T/C [12] was 76.1%. It also gave a viability, T/C [13] of 114%, a viability, T/C [14] of 110% and a viability, T/C [15] of 100%. The viability, T/C [16] was 94.4%, the viability, T/C [17] was 95% and the viability, T/C [18] was 63.1%. For the same compound, the viability, T/C [19] was 107%, the viability, T/C [20] was 95.7% and the viability, T/C [21] was 111%. It also gave a viability, T/C [22] of 101%, a viability, T/C [23] of 89.4% and a viability, T/C [24] of 70.9%. For the same compound, the viability, T/C [25] was 116%, the viability, T/C [26] was 106% and the viability, T/C [27] was 91.7%. The viability, T/C [28] was 86.2%, the viability, T/C [29] was 90.6% and the viability, T/C [30] was 55.1%. The viability, T/C [31] was 98.7%, the viability, T/C [32] was 96.5% and the viability, T/C [33] was 90.9%. It also gave a viability, T/C [34] of 85.3%, a viability, T/C [35] of 68% and a viability, T/C [36] of 61.1%.

For `CCc1cc2c(N3CCc4c(cc(Cn5ccnc5)cc4-c4cn(C)nc4C(F)(F)F)C3=O)ccnc2c(OC)n1` + Nc1ccc(C#CCN(C(=O)Cc2ncc(C(F)(F)F)cc2C(F)(F)F)c2ccc(F)cc2)nn1, the IC50 (second compound 0.0316 µM) was > 10 µM, the IC50 (second compound 0.1 µM) was > 10 µM and the IC50 (second compound 0.316 µM) was > 10 µM. For the same compound, the IC50 (second compound 1 µM) was > 10 µM, the IC50 (second compound 3.16 µM) was > 10 µM and the IC50 (second compound 10 µM) was > 10 µM. For the same compound, the viability, T/C [1] was 118%, the viability, T/C [2] was 99.3% and the viability, T/C [3] was 93.6%. The viability, T/C [4] was 115%, the viability, T/C [5] was 109% and the viability, T/C [6] was 74.3%. The viability, T/C [7] was 101%, the viability, T/C [8] was 107% and the viability, T/C [9] was 91.4%. The viability, T/C [10] was 99.2%, the viability, T/C [11] was 89.2% and the viability, T/C [12] was 73.6%. For the same compound, the viability, T/C [13] was 126%, the viability, T/C [14] was 100% and the viability, T/C [15] was 107%. It also gave a viability, T/C [16] of 98.9%, a viability, T/C [17] of 97.2% and a viability, T/C [18] of 79.5%. For the same compound, the viability, T/C [19] was 102%, the viability, T/C [20] was 114% and the viability, T/C [21] was 103%. It also gave a viability, T/C [22] of 101%, a viability, T/C [23] of 89% and a viability, T/C [24] of 73.5%. The viability, T/C [25] was 96.9%, the viability, T/C [26] was 97.2% and the viability, T/C [27] was 89.5%. For the same compound, the viability, T/C [28] was 100%, the viability, T/C [29] was 84.5% and the viability, T/C [30] was 76.5%. The viability, T/C [31] was 90.4%, the viability, T/C [32] was 103% and the viability, T/C [33] was 87%. The viability, T/C [34] was 80.6%, the viability, T/C [35] was 84.8% and the viability, T/C [36] was 62.2%.
